Counter-ions that a name gives are not always drawn.
Columns and labels:
[1] = tested on: HeLa cells; experiment: Doxorubicin-induced G2M checkpoint abrogation HeLa cell-based Acumen assay (pHH3); details: 125 nM doxorubicin, 7 h compound
Procedure: An inhibitor of Chk1 will disable the G2M DNA damage checkpoint in p53-minus tumor cells treated with the topoisomerase II inhibitor, doxorubicin. A measurement of G2M checkpoint abrogation is the phosphorylation of histone H3 on serine 10 that occurs after cells traverse the G2M checkpoint and enter mitosis. The following high content imaging assay can be used to measure the phosphorylation histone H3 in cells. HeLa cells are cultured in MEM Media supplemented with 10% (v/v) FBS and plated at 2000 cells per well in poly D-lysine coated clear bottom black plates, 100 μL volume per well. Plates are then incubated in a cell culture incubator for 18-24 h (37° C., 5% CO2 and 95% relative humidity), Following the initial incubation, 20 μL of MEM Media plus 10% FBS containing […] doxorubicin are added to the appropriate wells of the plates resulting in a final concentration of 125 nM. The plates are returned to the incubator for 24 h, sufficient to arrest the cells at the G2M checkpoint. The next day the cells are treated 1.0 with compounds. Compounds are solubilized at […] in 100% DMSO and then diluted to a 10× stock starting at 50 μM in MEM plus 4% (v/v) DMSO. Subsequently, serial dilutions of the compounds (1:2) are prepared over a 50 μM to 0.39 μM range. Thirteen μL of compound stock is added to the appropriate wells in the plate to produce a final DMSO concentration of 0.4% and a final compound concentration range between 5 and 0.039 μM. […] Plates are scanned with ACUMEN EXPLORER™ Laser-scanning fluorescence microplate cytometers using 488 nm excitation (TTP LABTECH LTC) to measure pHH3 and DNA content including 2N, and 4N, The pHH3 positive cells are identified by mean intensity at 519 nm from Alexa 488. […] The final readout for each population is determined by normalizing to the % of total cells producing a final assay output of % pHH3, % 2N, and % 4N. 100% activity is then determined by treating cells with the maximum concentration of an inhibitor control compound at 100 nM to determine the final % activity of each compound. […]

[2] = tested on: HT-29 colon tumor xenograft; experiment: HT-29 tumor xenograft model, subcutaneous administration of Chk1 inhibitor; format: in vivo, nude mice
Procedure: (§1) The ability of Chk1 inhibitors to potentiate tumor killing by DNA damaging agents can be determined in vivo using the Calu-6 lung and HT-29 colon tumor xenograft efficacy models. Calu-6 lung cancer cells are cultured in growth media (MEM with Earle's Balanced Salt Solution with L-glutamine supplemented with 10% (v/v) heat inactivated FBS, 1×MEM non-essential amino acids, 1× sodium pyruvate) and HT-29 colon cancer cells (ATCC) are cultured in growth media, (McCoy's 5A medium supplemented with 10% FBS) and expanded.
(§2) Cells are harvested and washed twice with phosphate buffered saline and 5×10^6 cells (HT-29) or 1×10^6 a cells (Calu-6) in growth media (without serum) are mixed with equal volume of BD Matrigel™ matrix, then injected subcutaneously into the flank of nude mice (CD-1 nu/nu).
(§3) At about day 16 after implant ([…]), gemcitabine is formulated fresh in saline daily and administered to animals by intraperitoneal route at 60 mg/kg dose. Twenty four hours later animals are administered the compound of Example 3, in 0.2% Tween-80/0.5% methylcellulose subcutaneously BID. After […], dosing is repeated for three additional cycles (Q4Dx4 with the compound of Example 3 offset+24 hours), Tumor growth inhibition (TGI) is calculated as the percent reduction in mean tumor size of a compound treated group from the mean tumor size of the vehicle-treated control group. Compounds within the scope of the invention are tested in this assay run substantially as above.

[3] = tested on: Calu-6 lung tumor xenograft; experiment: Calu-6 tumor xenograft model, subcutaneous administration of Chk1 inhibitor; format: in vivo, nude mice
Procedure: as §1, §2, §3

[4] = tested on: Calu-6 lung tumor xenograft; experiment: Calu-6 tumor xenograft model, oral administration of Chk1 inhibitor; format: in vivo, nude mice
Procedure: as §1, §2
(§4) At about day 16 after implant (150-200 mm^3), gemcitabine is formulated fresh in saline daily and administered to animals by intraperitoneal route at 40 mg/kg dose. Twenty four hours later animals are administered Chk1 compound, in 0.2% Tween-80/0.5% methylcellulose by the oral route MD. After three days of rest, dosing was repeated for three additional cycles (Q5Dx4 with the compound of Example 3 offset+24 hours). Tumor growth inhibition (TGI) is calculated as described in the previous paragraph. Compounds within the scope of the invention are tested in this assay run substantially as above.

[5] = tested on: HT-29 colon tumor xenograft; experiment: HT-29 tumor xenograft model, oral administration of Chk1 inhibitor; format: in vivo, nude mice
Procedure: as §1, §2, §4

Row | SMILES | EC50 ([1]; Homo sapiens, HeLa, 7 h) [nM] | EC50 ([1]; acetic acid salt) [nM] | % TGI at day 38 ([2]; HT29, Example 3 40 mpk subcutaneous BID alone) [%] | anti-tumor activity in combination with gemcitabine ([2]; HT-29 xenograft, subcutaneous BID, gemcitabine 60 mg/kg ip) | increase in tumor growth inhibition over gemcitabine alone ([2]; subcutaneous, stated for HT-29 and Calu-6 models together) | % TGI at day 47 ([3]; Calu 6, Example 3 40 mpk subcutaneous BID alone) [%] | anti-tumor activity in combination with gemcitabine ([3]; Calu-6 xenograft, subcutaneous BID, gemcitabine 60 mg/kg ip) | % TGI at day 37 ([4]; Calu6, Example 3 30 mpk oral alone) [%] | anti-tumor activity in combination with gemcitabine ([4]; Calu-6 xenograft, oral, gemcitabine 40 mg/kg ip) | % TGI at day 50 ([5]; HT29, Example 3 30 mpk oral alone) [%] | anti-tumor activity in combination with gemcitabine ([5]; HT-29 xenograft, oral, gemcitabine 40 mg/kg ip) | increase in tumor growth inhibition over gemcitabine alone ([5]; oral, stated for HT-29 and Calu-6 models together)
1 | COc1nc(C)ccc1-c1cc(Nc2cncc(O[C@@H]3CCCNC3)n2)[nH]n1 [Example 1, (R)-[5-(2-Methoxy-6-methyl-pyridin-3-yl)-2H-pyrazol-3-yl]-[6-(piperidin-3-yloxy)-pyrazin-2-yl]-amine] | 29 | – | – | – | – | – | – | – | – | – | – | –
2 | COc1nc(C)ccc1-c1cc(Nc2cncc(O[C@@H]3CCCNC3)n2)[nH]n1 [Example 3, (R)-[5-(2-Methoxy-6-methyl-pyridin-3-yl)-2H-pyrazol-3-yl]-[6-(piperidin-3-yloxy)-pyrazin-2-yl]-amine acetic acid salt] | – | 19 | 26 | excellent dose dependent anti-tumor activity | up to a six-fold increase in tumor growth inhibition over gemcitabine alone | −19 | excellent dose dependent anti-tumor activity | 37 | excellent dose dependent anti-tumor activity | 39 | excellent dose dependent anti-tumor activity | ≤ 2,9 fold
